Biological target: Protein disulfide-isomerase (Homo sapiens) (UniProt P07237)
Assay: PDI inhibitors, insulin turbidity readout, confirmation, biochemical, dry powder samples, set 2 (AID 652146)
Conditions: PDI insulin reduction turbidity, plate reader

Sequence of Protein disulfide-isomerase (Homo sapiens) (P07237 whole entry, looked up): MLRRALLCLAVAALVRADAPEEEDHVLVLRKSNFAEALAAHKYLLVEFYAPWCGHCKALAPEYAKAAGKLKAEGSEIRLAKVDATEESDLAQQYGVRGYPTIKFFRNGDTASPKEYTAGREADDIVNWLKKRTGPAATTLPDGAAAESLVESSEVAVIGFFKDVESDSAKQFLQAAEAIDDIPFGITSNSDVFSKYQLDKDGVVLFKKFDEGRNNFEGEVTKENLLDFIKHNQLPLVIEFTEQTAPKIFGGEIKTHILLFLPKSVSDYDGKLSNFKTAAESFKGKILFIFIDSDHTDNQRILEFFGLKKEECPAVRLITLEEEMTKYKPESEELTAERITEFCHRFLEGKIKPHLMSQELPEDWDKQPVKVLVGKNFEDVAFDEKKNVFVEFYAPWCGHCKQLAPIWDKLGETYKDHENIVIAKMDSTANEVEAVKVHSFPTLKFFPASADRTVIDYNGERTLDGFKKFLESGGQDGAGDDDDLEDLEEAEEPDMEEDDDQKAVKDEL

Structure (SMILES): CCOC(=O)C1(CCOc2ccccc2)CCN(Cc2ccc(O)c(Cl)c2)CC1
- AC50: 0.1 µM
